Laboratory results from patent US20040152665A1, “Amelioration of decreased weight and growth by n-acylated glucosamines” (priority 2003, published 2004).

Tests used:
[1] = Experiment 1: weight gain of rats on restricted diet (20 g crushed chow/day) with supplement mixed in chow; format: in vivo, Sprague-Dawley male rats; conditions: for average weights and rates of weight gain and growth: days 4 to 11, 20 g chow/day supplemented with 1.0 g GlcNBu or 0.75 g Glc (equimolar) per day per animal; for average weights and rates of weight gain and growth / average rates of weight gain and growth and body weights: compared to control; for average rates of weight gain and growth and body weights: days 12 to 18, 20 g chow/day supplemented with 1.5 g GlcNBu or 1.148 g Glc (equimolar) per day per animal; for stimulation of weight gain and growth (overall, Experiment 1): oral supplementation of restricted diet, 18 days
Excerpt: Twelve Sprague-Dawley male rats of body weights between 85 and 90 g each were placed in metabolic cages with access to food, each in an individual separate feeding compartment, so the animals could consume all their food without loss or spillage. Each morning 20 g of crushed commercial chow, which was less than the average determined amount of crushed chow these animals consume. ad lib, was placed in each individual feeding compartment. This procedure ensured that each animal would completely consume all of the crushed chow placed in each feeding compartment over the 24 hours starting with the said placement of the food. Supplementation of the crushed chow with the compounds to be tested was accomplished by mixing the compound with the chow. All test compounds were fully acceptable by the animals and the feeding compartments were emptied by the animals of the crushed chow and any test compound mixed therein, within 24 hr from the beginning of each feeding period. The animals were allowed free access to drinking water throughout the experimental period, which they consumed ad lib. The animals, obtained from a single commercial shipment, were randomly assigned to three experimental groups with four animals in each group. The experimental groups of animals are designated in FIG. 1 (A & B) as control; N-butyryl-D-glucosamine, shown as formula (II) and abbreviated as GlcNBu; and D-glucose abbreviated as Glc.
Starting at day 1 and continuing to day 12, inclusive, supplementations of the 20 g of crushed chow per day per animal were as following: Control group—no supplementation; GlcNBu group—supplementation with 1.0 g of GlcNBu per day per animal; Glc—supplementation with 0.75 g of Glc per day per animal, which corresponds to an equimolar amount of this GlcNBu supplementation.
On day 12 and continuing through day 18, the crushed chow (20 g given per day per animal) was further supplemented as follows: Control group—no supplementation; GlcNBu group—supplementation with 1.5 g of GlcNBu per day per animal; Glc —supplementation with 1.148 g of Glc per day per animal, which corresponds to an equimolar amount of this GlcNBu supplementation. It will be observed from FIG. 1 that there was no difference in the average rates of weight gain and growth or weights of the animals in the Glc and the control experimental groups of animals during the period of 12 to 18 days, inclusive.

epiphyseal growth plate = assay: Experiment 5: 35S[SO4] autoradiography of epiphyseal growth plates; format: in vivo, rats; conditions: for mean density value of autoradiograms in the region of the epiphyseal growth plate (area under scan curve; black = 0, white = 255): 20 hours after 20 μCi 35S[SO4] i.p. on day 18 of Experiment 1, 12 autoradiograms per group, control 125.6; for incorporation of radioisotope into sulfated glycosaminoglycans of proteoglycans of the epiphyseal growth plates, compared to control: 20 hours after 35S[SO4] injection
Description: At the end of Experiment 1, described above, the rats were injected intra-peritonealy with 20 μCi of ^35S[SO4] in 1 ml of saline on day 18 and sacrificed 20 hours after the injection. The femurs were removed and the distal ends of the bones were processed histologically for autoradiography. Histological sections of the bones were used to make autoradiograms on X-ray film and were also processed for routine histology, including Toluidine blue staining for assessment of the proteoglycans in the growth plate. No histological abnormalities were detected in the histology sections obtained from any of the experimental groups of animals. The density of the autoradiograms in the region of the epiphyseal growth plate was evaluated and quantified utilizing a scanning microscope and the appropriate software. The software calculates the density of the autoradiogram by scoring a black region (maximally incorporated radioactivity) as 0 and a white region (no incorporated radioactivity) as 255. The areas under the curves of the scan of the autoradiogram (see FIG. 5) are then computed to give the stated values. The mean values of all of the autoradiograms (12 autoradiograms for each group of animals) were: Control, 125.6; Glc-supplemented, 127.1; GlcNBu—supplemented, 143.2. FIG. 5 illustrates scans of typical autoradiograms for the control, Glc-supplemented and GlcNBu-supplemented groups. Each scan is illustrated by a curve whose bases (at the top right and left of the figure) represent radioisotope incorporation at the periphery of the epiphyseal growth plate, while the trough of the curve (in the central part of the figure) represents radioisotope incorporation in the central part of the epiphyseal growth plate. It can be seen that for each of the experimental groups less radioactivity has been incorporated in the central part of the epiphyseal growth plates (the trough of the curve), compared to the periphery of the epiphyseal growth plate (the bases of the curve). The curves with the deepest, middle and least troughs represent autoradiograms from the epiphyses of animals fed with GlcNBu (dots-dashes), Glc (dots) and controls (solid line), respectively, as described in Experiment 1.

[2] = Acute toxicology studies in rats (feeding); format: in vivo; conditions: for rate of weight gain and growth compared to control animals: fed in significant amounts (glucosamine) or equimolar amounts (glucose)
Description: Acute toxicology studies were carried out in order to evaluate the toxicity in rats of the aforesaid compounds.

[3] = Setnikar I et al. Arzneimittelforschung 1986; cited from earlier work
[4] = Experiment 4: weight gain of rats fed ad libitum and gavaged with various amounts of supplement; format: in vivo, Sprague Dawley male rats; conditions: for effect on weight gain: 2000 mg/kg by gavage
Description: (§1) For the data illustrated in FIG. 4, thirty Sprague Dawley male rats were adapted for one week so that each of their weights at the onset of treatment was approximately 185 grams. Each treatment group consisted of six animals, each administered one of the following treatments: water, 20 mg/kg GlcNBu, 200 mg/kg GlcNBu, 2000 mg/kg GlcNBu of 2000 mg/kg GlcN. All animals were fed Purina Rat Chow and water ad libitum. […] For nine days, the compounds were administered using the gavage technique; half doses being administered at 08:00 and at 17:00. Final urine samples were collected, histological examinations were performed to identify any overt signs of damage and then samples from each were harvested. Urinanalysis was performed using reagent strips (Multistix 8 SG from Bayer Inc. Healthcare Division, Etobicoke ON). […] No symptoms of neurological damage such as seizures or problems with vision were observed. All animals were well groomed and clean, and their snouts were normal.

[5] = Experiment 2: weight gain of rats restricted to 10 g (later 15 g) chow/day, supplement dissolved in water then solid; format: in vivo, Sprague Dawley male rats
Description: The animals were maintained in metabolic cages for the duration of the study (FIG. 2). Parameters of behavior and physical appearance were observed daily for any indications of toxicological complications. Twelve Sprague Dawley male rats were restricted to 10 g of Purina Rat Chow per day for eight days. Treatment groups were provided with water containing 20 mg/mL GlcN or GlcNBu. Daily volumes of urine produced and water consumed were recorded. The mean water consumption (ml/day) for the three groups was: 22.80, 24.45 and 21.45 for the control, the GlcN-supplemented and the GlcNBu-supplemented groups, respectively. These values were not statistically significant. On day nine of the study, untreated water was provided and the mass of rat chow given daily was increased to 15 g, supplemented with an additional 1.0 g of solid treatment compound. On day 18, the animals were sacrificed by CO2 asphyxiation and their organs were inspected for damage.

[6] = Experiment 4: toxicity observations (behaviour, histological examination, urinanalysis); format: in vivo; conditions: gavage nine days; GlcN 2000 mg/kg, GlcNBu 20, 200, 2000 mg/kg; data not shown
Description: as §1

[7] = Experiment 3: weight gain of rats restricted to 10 g chow/day and gavaged with supplement; format: in vivo, Sprague Dawley male rats; conditions: 300 mg by gavage three times daily, by the eighth day of treatment
Description: The weights, and behavioral and physical parameters of 20 Sprague Dawley male rats, 5 per treatment group, were monitored over a ten-day period. The control group was given Purina Rat Chow ad libitum. The treatment groups were restricted to 10 g of rat chow per day and were supplemented with one of 300 mg GlcNBu, 300 mg GlcN or water, administered by gavage three times daily (FIG. 3). The animals were then sacrificed by CO2 asphyxiation and their organs checked for signs of damage.

Compound | average weights and rates of weight gain and growth [1] | average rates of weight gain and growth and body weights [1] | stimulation of weight gain and growth (overall, Experiment 1) [1] | mean density value of autoradiograms in the region of the epiphyseal growth plate (area under scan curve; black = 0, white = 255) (epiphyseal growth plate) | incorporation of radioisotope into sulfated glycosaminoglycans of proteoglycans of the epiphyseal growth plates, compared to control (epiphyseal growth plate) | rate of weight gain and growth compared to control animals [2] | concentrations of free glucosamine in the circulation after ingestion [3] | effect on weight gain ([4]; nine days) | weight gained over the water controls ([5]; 20 mg/mL in water for 8 days, then 1.0 g solid with 15 g chow, maintained after five days of treatment) | growth compared to the GlcN group ([5]; starting at about day 10) | upper limit of feeding in terms of observed toxicity ([2]; oral feeding, rats) | increase in weights compared to water controls ([4]; 20 mg/kg by gavage, by day 3) | average weight gain compared to the GlcN group (2000 mg/kg) ([4]; 20 mg/kg by gavage, margin became insignificant by day seven) | increase in weights compared to water controls ([4]; 200 mg/kg by gavage, by day 5) | average weight gain compared to the GlcN group (2000 mg/kg) ([4]; 200 mg/kg by gavage, significantly heavier by day 4) | dose of maximal stimulatory effect on weight gain and growth ([4]; gavage, nine days, doses 20, 200, 2000 mg/kg) | histological examinations for signs of toxicity [6] | increase in weight compared to the same amount of GlcN [7]
O=C[C@H](O)[C@@H](O)[C@H](O)[C@H](O)CO [Glc, D-glucose, reference compound] | essentially identical | no difference | failed to stimulate growth or weight gain | 127.1 | (relatively small) stimulation of epiphyseal plate metabolism | no significant change | – | – | – | – | – | – | – | – | – | – | – | –
N[C@H]1C(O)O[C@H](CO)[C@@H](O)[C@@H]1O (stereo partly shown) [GlcN, glucosamine] | – | – | – | – | – | decrease in the rate of weight gain and growth | only very low or not detectable concentrations | depression of weight gain | – | – | – | – | – | – | – | – | – | –
CCCC(=O)N[C@H]1C(O)O[C@H](CO)[C@@H](O)[C@@H]1O (stereo partly drawn) [GlcNBu, N-butyryl-D-glucosamine] | significantly higher than those of the other groups | further increase in the rate and average body weights | stimulated the weight gain and growth | 143.2 | less incorporation of the radioisotope | – | – | lesser stimulations, which were, nevertheless, higher than the control | consistent statistical differences in weight gained over the water controls | grew somewhat more rapidly | no upper limit | statistically significant from those of the water controls | significantly higher | statistically significant from those of the water controls | significantly higher | 200 mg/kg | failed to reveal any signs of toxicity | significantly greater increase in weight
